From ChEMBL document CHEMBL3045522, “Responses of dry beans (Phaseolus vulgaris L.) to sulfentrazone” (Crop Prot, 2007)

How the values were obtained:
Assay type in all cases: organism-based
Phaseolus vulgaris [1] = assay: Phytotoxicity against Phaseolus vulgaris (dry bean) assessed as visual crop injury at 420 g a.i./ha applied pre-emergence measured at 14 days post-emergence relative to control; details: in vivo, other, 336 h
Phaseolus vulgaris [2] = assay: Phytotoxicity against Phaseolus vulgaris (White dry beans) assessed as plant height at 840 g a.i./ha applied pre-emergence measured at 28 days post-emergence (reference value: 31 +/- 2 cm); details: in vivo, other, 672 h
Phaseolus vulgaris [3] = assay: Phytotoxicity against Phaseolus vulgaris (Pinto dry beans) assessed as plant height at 840 g a.i./ha applied pre-emergence measured at 28 days post-emergence (reference value: 32 +/- 1 cm); details: in vivo, other, 672 h
Phaseolus vulgaris [4] = assay: Phytotoxicity against Phaseolus vulgaris (Cranberry dry beans) assessed as plant height at 840 g a.i./ha applied pre-emergence measured at 28 days post-emergence (reference value: 33 +/- 1 cm); details: in vivo, other, 672 h
Phaseolus vulgaris [5] = assay: Phytotoxicity against Phaseolus vulgaris (Brown dry beans) assessed as plant height at 840 g a.i./ha applied pre-emergence measured at 28 days post-emergence (reference value: 33 +/- 1 cm); details: in vivo, other, 672 h
Phaseolus vulgaris [6] = assay: Phytotoxicity against Phaseolus vulgaris (Black dry beans) assessed as plant height at 840 g a.i./ha applied pre-emergence measured at 28 days post-emergence (reference value: 28 +/- 1 cm); details: in vivo, other, 672 h
Phaseolus vulgaris [7] = assay: Phytotoxicity against Phaseolus vulgaris (Yellow eye dry beans) assessed as plant height at 420 g a.i./ha applied pre-emergence measured at 28 days post-emergence (reference value: 33 +/- 1 cm); details: in vivo, other, 672 h
Phaseolus vulgaris [8] = assay: Phytotoxicity against Phaseolus vulgaris (Kidney dry beans) assessed as visual crop injury at 420 to 840 g a.i./ha applied pre-emergence measured at 28 days post-emergence relative to control; details: in vivo, other, 672 h
Phaseolus vulgaris [9] = assay: Phytotoxicity against Phaseolus vulgaris (Cranberry dry beans) assessed as visual crop injury at 420 to 840 g a.i./ha applied pre-emergence measured at 28 days post-emergence relative to control; details: in vivo, other, 672 h
Phaseolus vulgaris [10] = assay: Phytotoxicity against Phaseolus vulgaris (brown dry beans) assessed as visual crop injury at 420 to 840 g a.i./ha applied pre-emergence measured at 28 days post-emergence relative to control; details: in vivo, other, 672 h
Phaseolus vulgaris [11] = assay: Phytotoxicity against Phaseolus vulgaris (Black dry beans) assessed as visual crop injury at 420 to 840 g a.i./ha applied pre-emergence measured at 28 days post-emergence relative to control; details: in vivo, other, 672 h
Phaseolus vulgaris [12] = assay: Phytotoxicity against Phaseolus vulgaris (Pinto dry beans) assessed as plant height at 420 g a.i./ha applied pre-emergence measured at 28 days post-emergence (reference value: 32 +/- 1 cm); details: in vivo, other, 672 h
Phaseolus vulgaris [13] = assay: Phytotoxicity against Phaseolus vulgaris (Otebo dry beans) assessed as plant height at 420 g a.i./ha applied pre-emergence measured at 28 days post-emergence (reference value: 31 +/- 2 cm); details: in vivo, other, 672 h
Phaseolus vulgaris [14] = assay: Phytotoxicity against Phaseolus vulgaris (Brown dry beans) assessed as plant height at 420 g a.i./ha applied pre-emergence measured at 28 days post-emergence (reference value: 33 +/- 1 cm); details: in vivo, other, 672 h
Phaseolus vulgaris [15] = assay: Phytotoxicity against Phaseolus vulgaris (Yellow eye dry beans) assessed as yield at 840 g a.i./ha applied pre-emergence (reference value: 2 +/- 0.1 tons/ha); details: in vivo, other
Phaseolus vulgaris [16] = assay: Phytotoxicity against Phaseolus vulgaris (Pinto dry beans) assessed as yield at 840 g a.i./ha applied pre-emergence (reference value: 3.1 +/- 0.1 tons/ha); details: in vivo, other
Phaseolus vulgaris [17] = assay: Phytotoxicity against Phaseolus vulgaris (Kidney dry beans) assessed as yield at 840 g a.i./ha applied pre-emergence (reference value: 1.9 +/- 0.1 tons/ha); details: in vivo, other
Phaseolus vulgaris [18] = assay: Phytotoxicity against Phaseolus vulgaris (Cranberry dry beans) assessed as reduction in yield at 840 g a.i./ha applied pre-emergence relative to control; set-up: scale not given: the % may be the effect or the level left; details: in vivo, other
Phaseolus vulgaris [19] = assay: Phytotoxicity against Phaseolus vulgaris (Black dry beans) assessed as reduction in yield at 840 g a.i./ha applied pre-emergence relative to control; set-up: scale not given: the % may be the effect or the level left; details: in vivo, other
Phaseolus vulgaris [20] = assay: Phytotoxicity against Phaseolus vulgaris (Yellow eye dry beans) assessed as yield at 420 g a.i./ha applied pre-emergence (reference value: 2 +/- 0.1 tons/ha); details: in vivo, other
Phaseolus vulgaris [21] = assay: Phytotoxicity against Phaseolus vulgaris (White dry beans) assessed as yield at 420 g a.i./ha applied pre-emergence (reference value: 2.9 +/- 0.1 tons/ha); details: in vivo, other
Phaseolus vulgaris [22] = assay: Phytotoxicity against Phaseolus vulgaris (Pinto dry beans) assessed as yield at 420 g a.i./ha applied pre-emergence (reference value: 3.1 +/- 0.1 tons/ha); details: in vivo, other
Phaseolus vulgaris [23] = assay: Phytotoxicity against Phaseolus vulgaris (Kidney dry beans) assessed as yield at 420 g a.i./ha applied pre-emergence (reference value: 1.9 +/- 0.1 tons/ha); details: in vivo, other
Phaseolus vulgaris [24] = assay: Phytotoxicity against Phaseolus vulgaris (Brown dry beans) assessed as yield at 420 g a.i./ha applied pre-emergence (reference value: 2.3 +/- 0.1 tons/ha); details: in vivo, other
Phaseolus vulgaris [25] = assay: Phytotoxicity against Phaseolus vulgaris (Black dry beans) assessed as yield at 420 g a.i./ha applied pre-emergence (reference value: 3.4 +/- 0.2 tons/ha); details: in vivo, other
Phaseolus vulgaris [26] = assay: Phytotoxicity against Phaseolus vulgaris (Yellow eye dry beans) assessed as reduction in shoot dry weight at 840 g a.i./ha applied pre-emergence measured at 42 days post-emergence relative to control; set-up: scale not given: the % may be the effect or the level left; details: in vivo, other, 1008 h
Phaseolus vulgaris [27] = assay: Phytotoxicity against Phaseolus vulgaris (Kidney dry beans) assessed as reduction in shoot dry weight at 840 g a.i./ha applied pre-emergence measured at 42 days post-emergence relative to control; set-up: scale not given: the % may be the effect or the level left; details: in vivo, other, 1008 h
Phaseolus vulgaris [28] = assay: Phytotoxicity against Phaseolus vulgaris (Black dry beans) assessed as reduction in shoot dry weight at 840 g a.i./ha applied pre-emergence measured at 42 days post-emergence relative to control; set-up: scale not given: the % may be the effect or the level left; details: in vivo, other, 1008 h
Phaseolus vulgaris [29] = assay: Phytotoxicity against Phaseolus vulgaris (Yellow eye dry beans) assessed as shoot dry weight at 420 g a.i./ha applied pre-emergence measured at 42 days post-emergence (reference value: 142 +/- 8 g/m); details: in vivo, other, 1008 h
Phaseolus vulgaris [30] = assay: Phytotoxicity against Phaseolus vulgaris (Pinto dry beans) assessed as shoot dry weight at 420 g a.i./ha applied pre-emergence measured at 42 days post-emergence (reference value: 134 +/- 11 g/m); details: in vivo, other, 1008 h
Phaseolus vulgaris [31] = assay: Phytotoxicity against Phaseolus vulgaris (Otebo dry beans) assessed as shoot dry weight at 420 g a.i./ha applied pre-emergence measured at 42 days post-emergence (reference value: 156 +/- 10 g/m); details: in vivo, other, 1008 h
Phaseolus vulgaris [32] = assay: Phytotoxicity against Phaseolus vulgaris (Kidney dry beans) assessed as shoot dry weight at 420 g a.i./ha applied pre-emergence measured at 42 days post-emergence (reference value: 133 +/- 8 g/m); details: in vivo, other, 1008 h
Phaseolus vulgaris [33] = assay: Phytotoxicity against Phaseolus vulgaris (Brown dry beans) assessed as shoot dry weight at 420 g a.i./ha applied pre-emergence measured at 42 days post-emergence (reference value: 123 +/- 7 g/m); details: in vivo, other, 1008 h
Phaseolus vulgaris [34] = assay: Phytotoxicity against Phaseolus vulgaris (Black dry beans) assessed as shoot dry weight at 420 g a.i./ha applied pre-emergence measured at 42 days post-emergence (reference value: 136 +/- 9 g/m); details: in vivo, other, 1008 h

## Cc1nn(-c2cc(NS(C)(=O)=O)c(Cl)cc2Cl)c(=O)n1C(F)F [SULFENTRAZONE]
Phaseolus vulgaris [1]
  Activity: 12%
Phaseolus vulgaris [2]
  Activity: 20 cm
Phaseolus vulgaris [3]
  Activity: 26 cm
Phaseolus vulgaris [4]
  Activity: 21 cm
Phaseolus vulgaris [5]
  Activity: 28 cm
Phaseolus vulgaris [6]
  Activity: 21 cm
Phaseolus vulgaris [7]
  Activity: 31 cm
Phaseolus vulgaris [8]
  Activity: 15.9%
Phaseolus vulgaris [9]
  Activity: 17.6%
Phaseolus vulgaris [10]
  Activity: 7%
Phaseolus vulgaris [11]
  Activity: 16.6%
Phaseolus vulgaris [12]
  Activity: 30 cm
Phaseolus vulgaris [13]
  Activity: 28 cm
Phaseolus vulgaris [14]
  Activity: 31 cm
Phaseolus vulgaris [15]
  Crop_yield: 1.4 tons/ha
Phaseolus vulgaris [16]
  Crop_yield: 2.7 tons/ha
Phaseolus vulgaris [17]
  Crop_yield: 1.6 tons/ha
Phaseolus vulgaris [18]
  Activity: 44%
Phaseolus vulgaris [19]
  Activity: 47%
Phaseolus vulgaris [20]
  Crop_yield: 2 tons/ha
Phaseolus vulgaris [21]
  Crop_yield: 2.4 tons/ha
Phaseolus vulgaris [22]
  Crop_yield: 3.4 tons/ha
Phaseolus vulgaris [23]
  Crop_yield: 1.9 tons/ha
Phaseolus vulgaris [24]
  Crop_yield: 2.3 tons/ha
Phaseolus vulgaris [25]
  Crop_yield: 2.9 tons/ha
Phaseolus vulgaris [26]
  Activity: 40%
Phaseolus vulgaris [27]
  Activity: 35%
Phaseolus vulgaris [28]
  Activity: 35%
Phaseolus vulgaris [29]
  Activity: 134 g/m
Phaseolus vulgaris [30]
  Activity: 149 g/m
Phaseolus vulgaris [31]
  Activity: 157 g/m
Phaseolus vulgaris [32]
  Activity: 128 g/m
Phaseolus vulgaris [33]
  Activity: 134 g/m
Phaseolus vulgaris [34]
  Activity: 111 g/m
